Patent US20050043180A1, “Optically active herbicidal (r)-phenoxypropionic acid-n-methyl-n-2-fluorophenyl amides” (priority 2001, published 2005)

Tests used:
[1] = tested on: Barnyard grass (ECHCG, Echinochloa crus-galli Beauv. var. caudata Kitagawa); experiment: Leaf treatment test, herbicidal activity on barnyard grass; format: in vivo
Experimental: (§1) Experimental Example 1: Leaf Treatment Test
Seeds of rice, wheat, barley, corn, cotton, barnyard grass, common sorgum, large crabgrass and fall panicum were seeded at a pot with a surface area of 600 cm^2. […], wettable powder prepared by mixing 1 part by weight of the active compound, 5 parts by weight of acetone and 1 part by weight of emulsifier and diluted with water was applied directly to the leaves in 2000 L per hectare. The concentration of the spray liquid was so chosen the particular amounts of the active compound desired. 14 days after the treatment, the degree of damage to the plants was rated in % damage in comparison to the development of untreated control.

[2] = tested on: Rice (ORYSA, Oryza sativa L. cv. Dongjin); experiment: Leaf treatment test, damage to rice; format: in vivo
Experimental: as §1
Seeds of rice, wheat, barley, corn, cotton, barnyard grass, common sorgum, large crabgrass and fall panicum were seeded at a pot with a surface area of 600 cm^2. When barnyard grass grown in a green house kept at 20-30° C. had three leaves, wettable powder prepared by mixing 1 part by weight of the active compound, 5 parts by weight of acetone and 1 part by weight of emulsifier and diluted with water was applied directly to the leaves in 2000 L per hectare. The concentration of the spray liquid was so chosen the particular amounts of the active compound desired. 14 days after the treatment, the degree of damage to the plants was rated in % damage in comparison to the development of untreated control.

[3] = leaf treatment 2 g/ha, 14 days after treatment
[4] = leaf treatment 4 g/ha, 14 days after treatment
[5] = leaf treatment 8 g/ha, 14 days after treatment
[6] = leaf treatment 16 g/ha, 14 days after treatment
[7] = leaf treatment 32 g/ha, 14 days after treatment
[8] = leaf treatment 63 g/ha, 14 days after treatment
[9] = leaf treatment 125 g/ha, 14 days after treatment
[10] = leaf treatment 250 g/ha, 14 days after treatment
[11] = leaf treatment 500 g/ha, 14 days after treatment
[12] = leaf treatment 1000 g/ha, 14 days after treatment
[13] = leaf treatment 2000 g/ha, 14 days after treatment
[14] = leaf treatment 4000 g/ha, rated 14 days after treatment vs untreated control, 0% no effect, 100% total destruction

Row | SMILES | % damage, Barnyard grass (4 leaves) [1, 3] | % damage, Barnyard grass (4 leaves) [1, 4] | % damage, Barnyard grass (4 leaves) [1, 5] | % damage, Barnyard grass (4 leaves) [1, 6] | % damage, Barnyard grass (4 leaves) [1, 7] | % damage, Barnyard grass (4 leaves) [1, 8] | % damage, Barnyard grass (4 leaves) [1, 9] | % damage, Barnyard grass (4 leaves) [1, 10] | % damage, Barnyard grass (4 leaves) [1, 11] | % damage, Barnyard grass (4 leaves) [1, 12] | % damage, Barnyard grass (4 leaves) [1, 13] | % damage, Barnyard grass (4 leaves) [1, 14] | % damage, Rice (4 leaves) [2, 3] | % damage, Rice (4 leaves) [2, 4] | % damage, Rice (4 leaves) [2, 5] | % damage, Rice (4 leaves) [2, 6] | % damage, Rice (4 leaves) [2, 7] | % damage, Rice (4 leaves) [2, 8] | % damage, Rice (4 leaves) [2, 9] | % damage, Rice (4 leaves) [2, 10] | also measured
1 | C[C@@H](Oc1ccc(Oc2nc3ccc(Cl)cc3o2)cc1)C(=O)N(C)c1ccccc1F [(R)-compound, (R)-2-[4-(6-chloro-2-benzoxazolyloxy)-phenoxy]propionic acid-N-(2-fluorophenyl)-N-methyl amide] | 6.3% | 62.5% | 98.8% | 100% | 100% | 100% | 100% | 100% | 100% | 100% | 100% | 100% | 0.0% | 0.0% | 0.0% | 0.0% | 0.0% | 0.0% | 0.0% | 0.0% | % damage, Rice (4 leaves) [2, 11]: 0.0%; % damage, Rice (4 leaves) [2, 12]: 2.5%; % damage, Rice (4 leaves) [2, 13]: 11.3%; % damage, Rice (4 leaves) [2, 14]: 22.5%
2 | C[C@H](Oc1ccc(Oc2nc3ccc(Cl)cc3o2)cc1)C(=O)N(C)c1ccccc1F [(S)-compound] | 0.0% | 0.0% | 7.5% | 65.0% | 92.5% | 100% | 100% | 100% | 100% | 100% | 100% | 100% | 0.0% | 0.0% | 0.0% | 0.0% | 0.0% | 0.0% | 0.0% | 0.0% | % damage, Rice (4 leaves) [2, 11]: 0.0%; % damage, Rice (4 leaves) [2, 12]: 0.0%; % damage, Rice (4 leaves) [2, 13]: 0.0%; % damage, Rice (4 leaves) [2, 14]: 0.0%
3 | CC(Oc1ccc(Oc2nc3ccc(Cl)cc3o2)cc1)C(=O)N(C)c1ccccc1F (racemic) [R,S-racemic compound] | 0.0% | 2.5% | 45.0% | 100% | 100% | 100% | 100% | 100% | 100% | 100% | 100% | 100% | 0.0% | 0.0% | 0.0% | 0.0% | 0.0% | 0.0% | 0.0% | 0.0% | % damage, Rice (4 leaves) [2, 11]: 0.0%; % damage, Rice (4 leaves) [2, 12]: 0.0%; % damage, Rice (4 leaves) [2, 13]: 0.0%; % damage, Rice (4 leaves) [2, 14]: 3.8%
